Experimental data: patent US9777020B2, “Furo-3-carboxamide derivatives and methods of use” (AbbVie Inc., priority 2014, dated 2017)

Target: TrkA (Homo sapiens (Human), UniProt P04629)
Assay: TrkA kinase HTRF enzyme inhibition assay
Assay type: biochemical
Settings: TrkA pre-incubated with 200 μM ATP
Method in brief: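 TrkA (2-10 nM) pre-activated 20 min with 200 μM ATP in HEPES pH 7.4/Mg/Mn buffer, compound added for 10 min, then biotinylated LCK-analog peptide (125 nM) for 1 h at ambient temperature. HTRF phosphotyrosine detection (665/620 ratio); duplicate half-log dilutions, IC50 from initial-rate inhibition via equation 1.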

Sequence of TrkA (P04629 33-796): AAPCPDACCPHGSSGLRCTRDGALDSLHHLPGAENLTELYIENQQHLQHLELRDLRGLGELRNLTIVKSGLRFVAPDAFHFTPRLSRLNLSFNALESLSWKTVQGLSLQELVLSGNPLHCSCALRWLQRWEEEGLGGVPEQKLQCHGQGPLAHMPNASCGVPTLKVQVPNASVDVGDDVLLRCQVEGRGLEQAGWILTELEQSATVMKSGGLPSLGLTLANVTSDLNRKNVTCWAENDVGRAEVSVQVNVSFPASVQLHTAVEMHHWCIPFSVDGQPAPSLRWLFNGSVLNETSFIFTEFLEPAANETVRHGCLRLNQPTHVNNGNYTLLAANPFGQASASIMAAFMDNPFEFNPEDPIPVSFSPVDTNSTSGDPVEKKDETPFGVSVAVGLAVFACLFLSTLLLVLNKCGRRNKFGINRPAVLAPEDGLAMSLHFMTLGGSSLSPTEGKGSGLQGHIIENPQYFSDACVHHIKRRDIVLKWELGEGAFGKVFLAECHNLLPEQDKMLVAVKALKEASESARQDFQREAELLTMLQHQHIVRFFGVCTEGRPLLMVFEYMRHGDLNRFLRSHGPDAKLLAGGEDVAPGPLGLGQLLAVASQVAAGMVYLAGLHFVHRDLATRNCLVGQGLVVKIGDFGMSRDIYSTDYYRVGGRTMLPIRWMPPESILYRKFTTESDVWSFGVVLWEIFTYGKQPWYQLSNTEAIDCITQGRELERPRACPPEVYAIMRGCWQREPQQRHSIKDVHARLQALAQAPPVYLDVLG

IC50 [nM]	Structure (SMILES)
4.7	CCOc1nc(N2CCN(C(C)=O)CC2)ccc1NC(=O)c1coc2c1C(=O)N(CCCO)CC2 [Example 89, N-[6-(4-acetylpiperazin-1-yl)-2-ethoxypyridin-3-yl]-5-(3-hydroxypropyl)-4-oxo-4,5,6,7-tetrahydrofuro[3,2-c]pyridine-3-carboxamide]
43.2	Cn1cc2cc(NC(=O)c3coc4c3C(=O)CC3(CCC3)C4)ccc2n1 [Example 150, N-(2-methyl-2H-indazol-5-yl)-4-oxo-4,7-dihydro-5H-spiro[1-benzofuran-6,1′-cyclobutane]-3-carboxamide]
367	CN1CCc2occ(C(=O)Nc3cc4cn[nH]c4cc3Cl)c2C1=O [Example 77, N-(6-chloro-1H-indazol-5-yl)-5-methyl-4-oxo-4,5,6,7-tetrahydrofuro[3,2-c]pyridine-3-carboxamide]
59.6	COc1cc(N2CCN(C(C)=O)CC2)ccc1NC(=O)c1coc2c1C(=O)C(C)(CN)CC2 (stereo not drawn) [Example 169, N-[4-(4-acetylpiperazin-1-yl)-2-methoxyphenyl]-5-(aminomethyl)-5-methyl-4-oxo-4,5,6,7-tetrahydro-1-benzofuran-3-carboxamide]
1.5	CCOc1nc(N2CCN(C(C)=O)CC2)ccc1NC(=O)c1coc2c1C(=O)N(C[C@@H](C)OC(C)=O)CC2 [Example 94, (2R)-1-[3-{[6-(4-acetylpiperazin-1-yl)-2-ethoxypyridin-3-yl]carbamoyl}-4-oxo-6,7-dihydrofuro[3,2-c]pyridin-5(4H)-yl]propan-2-yl acetate]
224	COCCOc1nc(N2CCN(C(C)=O)CC2)ccc1NC(=O)c1coc2c1C(=O)N(CCO)CC2 [Example 87, N-[6-(4-acetylpiperazin-1-yl)-2-(2-methoxyethoxyl)pyridin-3-yl]-5-(2-hydroxyethyl)-4-oxo-4,5,6,7-tetrahydrofuro[3,2-c]pyridine-3-carboxamide]
6.9	CC(C)(O)COc1nc(N2CCOCC2)ccc1NC(=O)c1coc2c1C(=O)NCC2 [Example 107, N-[2-(2-hydroxy-2-methylpropoxy)-6-(morpholin-4-yl)pyridin-3-yl]-4-oxo-4,5,6,7-tetrahydrofuro[3,2-c]pyridine-3-carboxamide]
3.3	CC(=O)N1CCN(c2ccc(NC(=O)c3coc4c3C(=O)NC(C)(C)C4)c(OC(C)C)n2)C[C@H]1CO [Example 133, N-{6-[(3S)-4-acetyl-3-(hydroxymethyl)piperazin-1-yl]-2-isopropoxypyridin-3-yl}-6,6-dimethyl-4-oxo-4,5,6,7-tetrahydrofuro[3,2-c]pyridine-3-carboxamide]
17.8	COCCOc1nc(N2CCN(C=O)CC2)ccc1NC(=O)c1coc2c1C(=O)NC(C)(C)C2 [Example 182, N-[6-(4-formylpiperazin-1-yl)-2-(2-methoxyethoxyl)pyridin-3-yl]-6,6-dimethyl-4-oxo-4,5,6,7-tetrahydrofuro[3,2-c]pyridine-3-carboxamide]
496	CN1CCN(c2ccc(NC(=O)c3coc4c3C(=O)NCCC4)c(Oc3ccc(CO)cc3)n2)CC1 [Example 83, N-{2-[4-(hydroxymethyl)phenoxy]-6-(4-methylpiperazin-1-yl)pyridin-3-yl}-4-oxo-5,6,7,8-tetrahydro-4H-furo[3,2-c]azepine-3-carboxamide]
7.9	CCOc1nc(C(=O)O)ccc1NC(=O)c1coc2c1C(=O)N(CCOC)C(C)(C)C2 [Example 145, 6-ethoxy-5-({[5-(2-methoxyethyl)-6,6-dimethyl-4-oxo-4,5,6,7-tetrahydrofuro[3,2-c]pyridin-3-yl]carbonyl}amino)pyridine-2-carboxylic acid]
135	CC1(C)CC(=O)c2c(C(=O)Nc3ccc(N4CCNCC4)nc3)coc2C1 [Example 149, 6,6-dimethyl-4-oxo-N-[6-(piperazin-1-yl)pyridin-3-yl]-4,5,6,7-tetrahydro-1-benzofuran-3-carboxamide]
134	CN1CCc2occ(C(=O)Nc3ccc4cn[nH]c4c3)c2C1=O [Example 64, N-(1H-indazol-6-yl)-5-methyl-4-oxo-4,5,6,7-tetrahydrofuro[3,2-c]pyridine-3-carboxamide]
3.9	CCOc1nc(N2CCN(C(C)=O)CC2)ccc1NC(=O)c1coc2c1C(=O)NC1(CCC1)C2 [Example 111, N-[6-(4-acetylpiperazin-1-yl)-2-ethoxypyridin-3-yl]-4′-oxo-4′,7′-dihydro-5′H-spiro[cyclobutane-1,6′-furo[3,2-c]pyridine]-3′-carboxamide]
48.5	O=C(Nc1ccc2c(cnn2CCN2CCOCC2)c1)c1coc2c1C(=O)NCC2 [Example 56, N-{1-[2-(morpholin-4-yl)ethyl]-1H-indazol-5-yl}-4-oxo-4,5,6,7-tetrahydrofuro[3,2-c]pyridine-3-carboxamide]
631	CCN(CC)c1ccc(NC(=O)c2coc3c2C(=O)NCC3)cc1 [Example 49, N-[4-(diethylamino)phenyl]-4-oxo-4,5,6,7-tetrahydrofuro[3,2-c]pyridine-3-carboxamide]
6.7	CCOc1nc(N2CCN(C(C)=O)CC2)ccc1NC(=O)c1coc2c1C(=O)N(C[C@H](C)OC(C)=O)CC2 [Example 96, (2S)-1-[3-{[6-(4-acetylpiperazin-1-yl)-2-ethoxypyridin-3-yl]carbamoyl}-4-oxo-6,7-dihydrofuro[3,2-c]pyridin-5(4H)-yl]propan-2-yl acetate]

IC50 [nM]	Structure (SMILES)
225	CCOc1nc(CCO)ccc1NC(=O)c1coc2c1C(=O)NCC2 [Example 109, N-[2-ethoxy-6-(2-hydroxyethyl)pyridin-3-yl]-4-oxo-4,5,6,7-tetrahydrofuro[3,2-c]pyridine-3-carboxamide]
35.3	Cn1cc2cc(NC(=O)c3coc4c3C(=O)C(C)(CO)CC4)ccc2n1 (stereo not drawn) [Example 167, 5-(hydroxymethyl)-5-methyl-N-(2-methyl-2H-indazol-5-yl)-4-oxo-4,5,6,7-tetrahydro-1-benzofuran-3-carboxamide]
279	CN1CCN(c2ccc(NC(=O)c3coc4c3C(=O)NCC4)nc2)CC1 [Example 16, N-[5-(4-methylpiperazin-1-yl)pyridin-2-yl]-4-oxo-4,5,6,7-tetrahydrofuro[3,2-c]pyridine-3-carboxamide]
682	COC(=O)c1ccc(Oc2nc(N3CCN(C)CC3)ccc2NC(=O)c2coc3c2C(=O)NCCC3)cc1 [Example 82, methyl 4-{[6-(4-methylpiperazin-1-yl)-3-{[(4-oxo-5,6,7,8-tetrahydro-4H-furo[3,2-c]azepin-3-yl)carbonyl]amino}pyridin-2-yl]oxy}benzoate]
5.3	CCOc1nc(N2CCN(C(C)=O)CC2)ccc1NC(=O)c1coc2c1C(=O)NC1(CC1)C2 [Example 117, N-[6-(4-acetylpiperazin-1-yl)-2-ethoxypyridin-3-yl]-4′-oxo-4′,7′-dihydro-5′H-spiro[cyclopropane-1,6′-furo[3,2-c]pyridine]-3′-carboxamide]
18.9	CS(=O)(=O)NCCn1cc2cc(NC(=O)c3coc4c3C(=O)NCC4)ccc2n1 [Example 51, N-(2-{2-[(methylsulfonyl)amino]ethyl}-2H-indazol-5-yl)-4-oxo-4,5,6,7-tetrahydrofuro[3,2-c]pyridine-3-carboxamide]
4.3	CCOc1nc(N2CCN(C(C)=O)CC2)ccc1NC(=O)c1coc2c1C(=O)N(C[C@@H](C)O)CC2 [Example 95, N-[6-(4-acetylpiperazin-1-yl)-2-ethoxypyridin-3-yl]-5-[(2R)-2-hydroxypropyl]-4-oxo-4,5,6,7-tetrahydrofuro[3,2-c]pyridine-3-carboxamide]
319	CN1CCc2occ(C(=O)Nc3ccc4ncccc4c3)c2C1=O [Example 63, 5-methyl-4-oxo-N-(quinolin-6-yl)-4,5,6,7-tetrahydrofuro[3,2-c]pyridine-3-carboxamide]
12.7	CCOc1nc(N2CCN(C(C)=O)CC2)ccc1NC(=O)c1coc2c1C(=O)N(C(C)(C)CO)CC2 [Example 102, N-[6-(4-acetylpiperazin-1-yl)-2-ethoxypyridin-3-yl]-5-(1-hydroxy-2-methylpropan-2-yl)-4-oxo-4,5,6,7-tetrahydrofuro[3,2-c]pyridine-3-carboxamide]
257	CN1CCc2occ(C(=O)Nc3ccc4[nH]ncc4c3)c2C1=O [Example 23, N-(1H-indazol-5-yl)-5-methyl-4-oxo-4,5,6,7-tetrahydrofuro[3,2-c]pyridine-3-carboxamide]
2590	Cc1cc2[nH]ncc2cc1NC(=O)c1coc2c1C(=O)N(C)CC2 [Example 74, 5-methyl-N-(6-methyl-1H-indazol-5-yl)-4-oxo-4,5,6,7-tetrahydrofuro[3,2-c]pyridine-3-carboxamide]
7	CCOc1nc(N2CCN(C(C)=O)CC2)ccc1NC(=O)c1coc2c1C(=O)N(CCOCCO)CC2 [Example 91, N-[6-(4-acetylpiperazin-1-yl)-2-ethoxypyridin-3-yl]-5-[2-(2-hydroxyethoxyl)ethyl]-4-oxo-4,5,6,7-tetrahydrofuro[3,2-c]pyridine-3-carboxamide]
506	COC(=O)c1n[nH]c2ccc(NC(=O)c3coc4c3C(=O)NCC4)cc12 [Example 48, methyl 5-{[(4-oxo-4,5,6,7-tetrahydrofuro[3,2-c]pyridin-3-yl)carbonyl]amino}-1H-indazole-3-carboxylate]
23.5	CC(=O)N1CCN(c2ccc(NC(=O)c3coc4c3C(=O)NCC4)c(O[C@H]3CCOC3)n2)CC1 [Example 105, N-{6-(4-acetylpiperazin-1-yl)-2-[(3S)-tetrahydrofuran-3-yloxy]pyridin-3-yl}-4-oxo-4,5,6,7-tetrahydrofuro[3,2-c]pyridine-3-carboxamide]
90.7	CC(O)Cn1ncc2cc(NC(=O)c3coc4c3C(=O)NCC4)ccc21 (stereo not drawn) [Example 50, N-[1-(2-hydroxypropyl)-1H-indazol-5-yl]-4-oxo-4,5,6,7-tetrahydrofuro[3,2-c]pyridine-3-carboxamide]
2480	CCOc1ccc(NC(=O)c2coc3c2C(=O)N(C)CC3)cn1 [Example 72, N-(6-ethoxypyridin-3-yl)-5-methyl-4-oxo-4,5,6,7-tetrahydrofuro[3,2-c]pyridine-3-carboxamide]
